These results are taken from patent publication US20250270170A1, “2,3-DIMETHOXY-5-METHYL-1,4-BENZOQUINONE ALKYL ALCOHOL DERIVATIVE AND USE THEREOF” (BEIJING ANJIANXI BIO-MEDICAL TECHNOLOGY CO., LTD., priority 2021, published 2025).

For experiment [1], the system named is cisplatin-induced acute kidney damage in mice. Briefly: Example 11: kidney weight and kidney coefficient in cisplatin-induced acute kidney damage model. The class given is in vivo, C57BL/6J mice. As to conditions: for Kidney coefficient (kidney weight/body weight), x (mean) / Kidney weight after the assay, x (mean): group mean. How it is done:
42 male C57BL/6J mice (age: 6 to 8 weeks, body weight 18-20 g, certificate number: 11400700238365) were purchased from Si Pei Fu (Beijing) Biotechnology Co., Ltd., and raised in an SPF-grade animal room of the Institute of Materia Medica, Chinese Academy of Medical Sciences, at a temperature of 20 to 25° C., a relative humidity of 40% to 70%, and a cycle of 12 hours of light and 12 hours of dark. The animals had free access to water and food. After 3 days of normal feeding, mice with good physical conditions after the veterinary examination were selected for this assay. Before grouping, a marker was used to mark on the base of the animals' tail. After grouping, each animal was marked with an ear cutout (7 mice in each group).
Assay animals: 42 7-week-old male C57 mice were used for animal testing after an adaptive feeding.
Group 1: blank control group;
The preparation of the R01 formulation administration test solution was the same as that in Example 5: an appropriate amount of the R01 formulation was weighed according to the three dosages set in the assay, respectively, and an appropriate volume of 0.5% CMC-Na aqueous solution was added. The mixture was vortexed and sonicated until mixed evenly, to give the administration test solutions with concentrations of […], respectively, which were ready for use.
Animal testing period: 7 days (excluding adaptive feeding), hereinafter referred to as: D1-D7.
1. The first group was a solvent control group: N=7, all mice were males (the same below); • a) 0.5% solution of sodium carboxymethyl cellulose was gavagely administered from D1 to D6 (twice a day for each animal, with an interval of 8 hours between the morning and the afternoon). • b) Physiological saline was intraperitoneally injected in one-time on D4. • c) On D7, blood was collected from the orbit for euthanasia (300 ul of serum was extracted), the left kidney was fixed in formaldehyde, and the right kidney was preserved in liquid nitrogen (WB study may be carried out).
3) Each animal was weighed before euthanasia, and the weight was recorded. Two kidneys were weighed as soon as possible after euthanasia, and the weight was recorded. Then, the two kidneys were quickly fixed or cryopreserved, and the kidney coefficient of the mouse was calculated (kidney weight/mouse weight).
The body weight of the animals when being grouped for administration in each group was recorded. The body weight and the kidney weight at the end of the assay were also recorded, and the kidney coefficient was calculated. The creatinine and urea nitrogen values in the blood samples sent for testing were recorded. The kidneys were stained with HE and PAS, and the slides were scanned. A report was issued after the pathological analysis.
The assay data were calculated and processed statistically using Microsoft Office Excel 2007 software. Unless otherwise specified, the data were expressed as mean±standard error (Mean±SE), and t-test was used for comparison between two groups.

Experiment [2] concerns NCI-H460 cells. Briefly: Cell EDU proliferation assay, NCI-H460. The class given is cell-based, human. As to conditions: 150 μM. As to the method:
(§1) The compound of formula (I) at a concentration of 150 μM was co-cultured with the cells for 42 h, and then the FBS concentration in the FBS stimulation well was increased to 20%. The cells were cultured for another 6 h, and then detected using a Cell-Light EDUApollo567 kit.
(§2) (1) Cells in the logarithmic growth phase were taken, and inoculated into a 24-well culture plate at 1×10^4 cells per well. The culture plate was cultured in a 37° C. incubator under the condition of 5% CO2, and drug was added according to the assay design when the cells adhered to the wall.
(§3) (2) After the drug treatment, the Cell-Light EDU Apollo567 kit was taken out. The reagent A in the kit was diluted with 1640 complete culture medium at a ratio of 1000:1 to prepare a 50 μM EDU culture medium, 300 μl of which was configured to each well of the 24-well plate. The 24-well plate was taken out from the incubator, and the original culture medium was aspirated with a vacuum aspirator. […]
(§4) (12) 150 μl of PBS was added to each well to wash once, and the PBS was discarded. Then, 200 μl of PBS was added, and the plate was placed on an inverted fluorescence microscope to take pictures. 6 fields of view were taken for each well under a 200× field of view, and the proportion of EDU-positive cells among 100 cells was calculated. […]

Experiment [3] deals with A549 cells. The experiment is described as follows: Cell EDU proliferation assay, A549. Format: cell-based, human. The settings on record: 150 μM. As to the method:
as §1, §2, §3, §4

Setting [4] is: individual animals No. 1-7, cisplatin model, R01 6 mg/kg, listed as R01, 6 mg/kg.
The mark [5] stands for this setting: individual animals No. 1-7, cisplatin model, R01 18 mg/kg, listed as R01, 18 mg/kg.
[6] abbreviates: individual animals No. 1-7, cisplatin model, R01 36 mg/kg, listed as R01, 36 mg/kg.
Setting [7] is: FBS increased to 20% for last 6 h.

Molecules are shown by their SMILES. Several values for one entry are separate records, joined by “and”; a condition that tells them apart may be missing. Equal entries are not always repeated.

In the case of `COC1=C(OC)C(=O)C(CCCCCCCCCCOC(=O)Cc2c(C)n(C(=O)c3ccc(Cl)cc3)c3ccc(OC)cc23)=C(C)C1=O` [compound of formula (I)], the “Kidney coefficient (kidney weight/body weight), x (mean)” value was 0.014 in experiment [1] (cisplatin model, R01 6 mg/kg); 0.013 in experiment [1] (cisplatin model, R01 18 mg/kg); 0.013 in experiment [1] (cisplatin model, R01 36 mg/kg). Besides, the “Kidney weight after the assay, x (mean)” value in experiment [1] (cisplatin model, R01 6 mg/kg) is reported as 0.223 g; in experiment [1] (cisplatin model, R01 18 mg/kg) it was 0.211 g; in experiment [1] (cisplatin model, R01 36 mg/kg), 0.207 g. Also, the “Kidney coefficient (kidney weight/body weight)” value in experiment [1] (setting [4]) is 0.013 (3×) and 0.015 and 0.014 (2×) and 0.018; in experiment [1] (setting [5]) it was 0.014 (3×) and 0.013 (4×); in experiment [1] (setting [6]), 0.012 and 0.014 (4×) and 0.013 (2×); in experiment [1] (with cisplatin 10 mg/kg, amifostine 50 mg/kg i.p., R01 6, 18, 36 mg/kg bid), “equivalent to that of the blank control group”. Besides, the “Kidney weight after the assay” value in experiment [1] (setting [4]) is 0.207 g and 0.212 g and 0.209 g and 0.224 g and 0.228 g and 0.214 g and 0.270 g; in experiment [1] (setting [5]), 0.214 g and 0.211 g (2×) and 0.206 g and 0.215 g and 0.210 g and 0.213 g; in experiment [1] (setting [6]) it was 0.192 g and 0.216 g and 0.203 g and 0.228 g and 0.213 g and 0.189 g and 0.206 g. For the same molecule, the “proportion of proliferating cells (EDU)” value in experiment [2] (48 hours, vs CTL (0 μM)) is recorded as “significantly reduced”; in experiment [3] (48 hours, vs CTL (0 μM)), “significantly reduced”. Also, the “cell proliferation under FBS stimulation (EDU)” value in experiment [2] (setting [7]) and in experiment [3] (setting [7]) was “can inhibit the cell proliferation effect” throughout.
